# Measured values taken from publication PMC10818746, “Inhibition of CYP1A1 Alleviates Colchicine-Induced Hepatotoxicity” (Toxins, 2024).
# Assays:
# Format in all cases: in vitro ADME
# Conditions in all cases: colchicine 25 µM, NADPH 1 mM, CYP 2 pmol/mL, PBS pH 7.4; mean ± SD (n = 2)
# CYP1B1 = target: T1, CYP1B1 (Homo sapiens, UniProt Q16678); experiment: Colchicine metabolism by cDNA-expressed recombinant CYP1B1
# T1 construct: purchased Research Institute for Liver Diseases Co., Ltd. (Shanghai, China)
# T1 sequence (Q16678 1-543): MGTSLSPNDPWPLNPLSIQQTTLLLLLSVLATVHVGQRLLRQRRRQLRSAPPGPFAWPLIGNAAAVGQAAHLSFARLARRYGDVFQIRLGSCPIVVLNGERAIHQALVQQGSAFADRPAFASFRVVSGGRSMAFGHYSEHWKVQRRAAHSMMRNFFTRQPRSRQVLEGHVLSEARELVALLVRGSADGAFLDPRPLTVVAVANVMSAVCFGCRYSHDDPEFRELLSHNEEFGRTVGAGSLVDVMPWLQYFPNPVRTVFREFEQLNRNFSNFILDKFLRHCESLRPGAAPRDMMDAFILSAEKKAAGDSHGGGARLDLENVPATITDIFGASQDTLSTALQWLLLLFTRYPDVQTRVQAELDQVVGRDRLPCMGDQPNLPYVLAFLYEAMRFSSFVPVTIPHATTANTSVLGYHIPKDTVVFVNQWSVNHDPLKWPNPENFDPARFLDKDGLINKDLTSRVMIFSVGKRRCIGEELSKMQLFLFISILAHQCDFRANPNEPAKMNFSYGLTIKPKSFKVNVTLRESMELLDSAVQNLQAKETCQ
# Protocol: (§1) Pre-cooled acetonitrile was used to terminate the reaction, and then centrifugation (4 °C, 12,000 rpm, 20 min) was performed to obtain the sample.
# (§2) All samples were analyzed as shown in [17] and are briefly described in Supporting Information. […]
# (§3) Supplementary materials and methods
# (§4) Reference numbers refer to the main text list
# (§5) UHPLC‐Q exactive plus MS Analysis
# (§6) All samples were analyzed on a liquid chromatography system including a Vanquish autosampler, Vanquish detector, Vanquish pump (Thremo Fisher Scientific, Santa Clara, CA). Samples were separated on an ACQUITY UPLC HSS T3 column (2.1×100 mm, […], Waters, USA). The injection volume: 5 μL, and the flow rate was 0.3 mL/min.
# (§7) Phase A was H2O containing 0.01% formic acid, and phase B was acetonitrile containing 0.01% formic acid. The elution gradient was as follows: 0‐12 mi n, 2‐98% B; 12‐14 min, 2% A; 14‐16 min, 98% A. Other parameters are as follows: column temperature 45 ℃ , flow rate of collision gas and dry gas 9 L/min. Capillary voltage 3.5 kV, temperature 350 ℃ , atomizer pressure 35 psi. Vanquish UHPLC‐Q Exactive plus MS (Thermo Fisher, USA) was collected in both positive modes, operating in full scan mode with 60‐900 m/z. […]
# CYP1A1 = target: T2, CYP1A1 (Homo sapiens, UniProt P04798); experiment: Colchicine metabolism by cDNA-expressed recombinant CYP1A1
# T2 construct: purchased Research Institute for Liver Diseases Co., Ltd. (Shanghai, China)
# T2 sequence (P04798 1-512): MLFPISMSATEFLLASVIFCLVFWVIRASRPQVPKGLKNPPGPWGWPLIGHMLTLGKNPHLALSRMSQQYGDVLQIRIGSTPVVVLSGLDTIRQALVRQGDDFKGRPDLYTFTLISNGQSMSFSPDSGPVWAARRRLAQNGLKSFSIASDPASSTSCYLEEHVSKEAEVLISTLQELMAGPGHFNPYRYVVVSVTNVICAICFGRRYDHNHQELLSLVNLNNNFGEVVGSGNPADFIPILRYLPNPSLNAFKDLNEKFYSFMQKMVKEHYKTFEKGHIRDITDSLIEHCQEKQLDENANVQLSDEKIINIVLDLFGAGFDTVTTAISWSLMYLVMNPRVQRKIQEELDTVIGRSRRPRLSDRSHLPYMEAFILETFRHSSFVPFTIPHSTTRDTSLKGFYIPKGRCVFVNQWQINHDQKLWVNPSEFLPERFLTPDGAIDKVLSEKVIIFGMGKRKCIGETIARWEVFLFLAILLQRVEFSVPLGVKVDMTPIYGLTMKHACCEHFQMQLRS
# Protocol: as §1, §2, §3, §4, §5, §6, §7
# CYP2C9 = target: T3, CYP2C9 (Homo sapiens, UniProt P11712); experiment: Colchicine metabolism by cDNA-expressed recombinant CYP2C9
# T3 construct: purchased Research Institute for Liver Diseases Co., Ltd. (Shanghai, China)
# Protocol: as §1, §2, §3, §4, §5, §6, §7
# CYP4A11 = target: T4, CYP4A11 (Homo sapiens, UniProt Q02928); experiment: Colchicine metabolism by cDNA-expressed recombinant CYP4A11
# T4 construct: purchased Research Institute for Liver Diseases Co., Ltd. (Shanghai, China)
# T4 sequence (Q02928 5-519): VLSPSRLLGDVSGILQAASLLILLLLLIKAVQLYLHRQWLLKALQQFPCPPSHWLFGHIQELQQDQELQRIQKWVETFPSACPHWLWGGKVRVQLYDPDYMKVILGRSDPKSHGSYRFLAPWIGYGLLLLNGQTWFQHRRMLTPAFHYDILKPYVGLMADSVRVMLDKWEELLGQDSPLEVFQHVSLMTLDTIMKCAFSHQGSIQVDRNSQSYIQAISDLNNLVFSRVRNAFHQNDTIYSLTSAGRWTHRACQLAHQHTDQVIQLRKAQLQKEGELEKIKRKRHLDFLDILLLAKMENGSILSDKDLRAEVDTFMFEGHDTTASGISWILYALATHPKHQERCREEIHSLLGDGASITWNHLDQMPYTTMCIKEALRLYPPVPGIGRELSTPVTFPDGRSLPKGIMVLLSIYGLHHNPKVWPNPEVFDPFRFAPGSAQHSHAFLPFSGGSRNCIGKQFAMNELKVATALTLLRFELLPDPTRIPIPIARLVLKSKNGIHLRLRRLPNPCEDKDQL
# Protocol: as §1, §2, §3, §4, §5, §6, §7
# CYP1A2 = target: T5, CYP1A2 (Homo sapiens, UniProt P05177); experiment: Colchicine metabolism by cDNA-expressed recombinant CYP1A2
# T5 construct: purchased Research Institute for Liver Diseases Co., Ltd. (Shanghai, China)
# T5 sequence (P05177 1-516): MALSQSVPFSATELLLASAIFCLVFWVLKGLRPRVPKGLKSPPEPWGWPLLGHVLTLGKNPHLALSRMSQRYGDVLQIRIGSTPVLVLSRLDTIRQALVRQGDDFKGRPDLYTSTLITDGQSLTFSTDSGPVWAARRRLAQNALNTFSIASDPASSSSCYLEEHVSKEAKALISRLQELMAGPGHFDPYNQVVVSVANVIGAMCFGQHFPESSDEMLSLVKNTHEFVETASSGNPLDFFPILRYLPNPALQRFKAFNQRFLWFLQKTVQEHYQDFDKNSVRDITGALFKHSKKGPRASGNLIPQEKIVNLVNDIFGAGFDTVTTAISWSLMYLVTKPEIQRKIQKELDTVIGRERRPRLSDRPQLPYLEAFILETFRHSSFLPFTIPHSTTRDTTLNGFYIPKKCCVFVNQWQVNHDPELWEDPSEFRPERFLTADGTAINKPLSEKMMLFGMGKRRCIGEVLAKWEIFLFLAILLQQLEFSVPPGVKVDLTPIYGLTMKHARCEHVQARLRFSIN
# Protocol: as §1, §2, §3, §4, §5, §6, §7
# CYP3A5 = target: T6, CYP3A5 (Homo sapiens, UniProt P20815); experiment: Colchicine metabolism by cDNA-expressed recombinant CYP3A5
# T6 construct: purchased Research Institute for Liver Diseases Co., Ltd. (Shanghai, China)
# Protocol: as §1, §2, §3, §4, §5, §6, §7
# CYP2A6 = target: T7, CYP2A6 (Homo sapiens, UniProt P11509); experiment: Colchicine metabolism by cDNA-expressed recombinant CYP2A6
# T7 construct: purchased Research Institute for Liver Diseases Co., Ltd. (Shanghai, China)
# Protocol: as §1, §2, §3, §4, §5, §6, §7
# T3 sequence (P11712 whole entry): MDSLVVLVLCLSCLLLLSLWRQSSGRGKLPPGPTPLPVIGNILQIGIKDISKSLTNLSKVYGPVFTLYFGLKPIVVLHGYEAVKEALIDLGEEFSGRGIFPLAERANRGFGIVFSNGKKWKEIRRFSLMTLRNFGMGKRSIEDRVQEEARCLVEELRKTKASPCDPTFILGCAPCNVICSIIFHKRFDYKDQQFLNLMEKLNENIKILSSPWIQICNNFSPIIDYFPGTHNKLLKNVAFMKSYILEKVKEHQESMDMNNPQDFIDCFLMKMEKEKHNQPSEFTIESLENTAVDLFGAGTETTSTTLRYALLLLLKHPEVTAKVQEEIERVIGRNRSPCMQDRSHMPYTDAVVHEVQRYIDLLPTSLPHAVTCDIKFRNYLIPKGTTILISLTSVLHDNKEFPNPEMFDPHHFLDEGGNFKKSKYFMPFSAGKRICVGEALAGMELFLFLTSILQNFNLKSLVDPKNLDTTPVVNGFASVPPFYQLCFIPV
# T6 sequence (P20815 whole entry): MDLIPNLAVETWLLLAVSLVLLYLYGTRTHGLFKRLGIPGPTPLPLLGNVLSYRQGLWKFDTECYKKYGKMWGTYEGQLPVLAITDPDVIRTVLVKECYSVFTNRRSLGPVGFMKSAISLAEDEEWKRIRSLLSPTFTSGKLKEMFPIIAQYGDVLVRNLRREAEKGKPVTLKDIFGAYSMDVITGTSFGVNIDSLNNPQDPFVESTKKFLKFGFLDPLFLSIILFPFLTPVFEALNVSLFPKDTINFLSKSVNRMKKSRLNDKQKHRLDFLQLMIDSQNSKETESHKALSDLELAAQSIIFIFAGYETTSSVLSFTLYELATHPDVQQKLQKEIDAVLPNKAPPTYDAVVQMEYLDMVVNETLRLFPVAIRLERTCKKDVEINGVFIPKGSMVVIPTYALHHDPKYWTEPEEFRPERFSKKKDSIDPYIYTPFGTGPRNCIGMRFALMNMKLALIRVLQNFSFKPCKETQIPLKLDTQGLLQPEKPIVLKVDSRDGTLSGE
# T7 sequence (P11509 whole entry): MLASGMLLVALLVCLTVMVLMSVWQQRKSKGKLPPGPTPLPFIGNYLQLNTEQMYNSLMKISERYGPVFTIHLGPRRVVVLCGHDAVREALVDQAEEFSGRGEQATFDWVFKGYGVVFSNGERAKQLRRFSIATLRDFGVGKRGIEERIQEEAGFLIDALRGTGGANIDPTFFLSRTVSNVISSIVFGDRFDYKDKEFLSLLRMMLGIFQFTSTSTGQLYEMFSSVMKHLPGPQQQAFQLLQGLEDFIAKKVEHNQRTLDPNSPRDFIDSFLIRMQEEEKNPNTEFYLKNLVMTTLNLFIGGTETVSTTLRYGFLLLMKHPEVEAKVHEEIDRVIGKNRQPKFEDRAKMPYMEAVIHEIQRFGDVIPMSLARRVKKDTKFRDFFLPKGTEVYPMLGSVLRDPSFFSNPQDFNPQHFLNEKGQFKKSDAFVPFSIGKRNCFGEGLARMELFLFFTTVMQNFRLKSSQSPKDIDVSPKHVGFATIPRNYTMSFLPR
SMILES,peak area of the metabolite after incubation with CYP1B1 as a percentage of the total peak areas from all the CYPs (CYP1B1) [%],peak area of the metabolite after incubation with CYP1A1 as a percentage of the total peak areas from all the CYPs (CYP1A1) [%],peak area of the metabolite after incubation with CYP2C9 as a percentage of the total peak areas from all the CYPs (CYP2C9) [%],peak area of the metabolite after incubation with CYP4A11 as a percentage of the total peak areas from all the CYPs (CYP4A11) [%],peak area of the metabolite after incubation with CYP1A2 as a percentage of the total peak areas from all the CYPs (CYP1A2) [%],peak area of the metabolite after incubation with CYP3A5 as a percentage of the total peak areas from all the CYPs (CYP3A5) [%],peak area of the metabolite after incubation with CYP2A6 as a percentage of the total peak areas from all the CYPs (CYP2A6) [%]
COc1cc2c(c(OC)c1OC)-c1ccc(O)c(=O)cc1[C@@H](NC(C)=O)CC2 [M4],7.00 ± 0.10,6.99 ± 0.30,6.44 ± 0.02,6.78 ± 0.33,6.72 ± 0.44,7.36 ± 0.44,6.66 ± 2.12
COc1cc2c(c(OC)c1OC)-c1ccc(OC)c(=O)cc1C=CC2 [M6],7.14 ± 0.77,8.78 ± 1.10,7.33 ± 0.35,6.01 ± 0.22,8.69 ± 0.17,8.06 ± 0.09,8.25 ± 0.69
COc1c(O)cc2c(c1O)-c1ccc(OC)c(=O)cc1[C@@H](NC(C)=O)CC2 [M8],7.48 ± 2.17,9.32 ± 5.12,6.12 ± 3.22,7.65 ± 1.95,8.67 ± 3.80,11.08 ± 1.09,4.23 ± 0.62
COc1c(O)cc2c(c1OC)-c1ccc(OC)c(=O)cc1[C@@H](NC(C)=O)C=C2 [M5],7.27 ± 2.20,6.87 ± 0.00,7.59 ± 0.00,8.01 ± 0.00,8.33 ± 0.00,8.12 ± 0.00,7.26 ± 8.64
COc1cc2c(c(OC)c1O)-c1ccc(OC)c(=O)cc1[C@@H](NC(C)=O)CC2 [M1],4.56 ± 1.73,3.91 ± 3.16,13.68 ± 5.29,6.48 ± 0.33,6.36 ± 0.19,9.93 ± 0.49,5.39 ± 0.90
COc1cc2c(c(O)c1OC)-c1ccc(OC)c(=O)cc1[C@@H](NC(C)=O)CC2 [M2],2.53 ± 0.65,4.51 ± 2.24,5.57 ± 1.45,3.57 ± 0.39,0.00 ± 0.00,12.14 ± 0.15,2.64 ± 0.16
